# Results reported in ChEMBL document CHEMBL1142381, “Design, synthesis, and biological evaluation of (hydroxyphenyl)naphthalene and -quinoline derivatives: potent and selective nonsteroidal inhibitors of 17beta-hydroxysteroid dehydrogenase type 1 (17beta-HSD1) for the treatment of estrogen-dependent diseases” (J Med Chem, 2008).
# Columns and labels:
# [1] = molecular target: T1, 17-beta-hydroxysteroid dehydrogenase type 1 (Homo sapiens, UniProt P14061); test: Inhibition of human placental 17beta-HSD1
# T1 sequence (P14061 whole entry): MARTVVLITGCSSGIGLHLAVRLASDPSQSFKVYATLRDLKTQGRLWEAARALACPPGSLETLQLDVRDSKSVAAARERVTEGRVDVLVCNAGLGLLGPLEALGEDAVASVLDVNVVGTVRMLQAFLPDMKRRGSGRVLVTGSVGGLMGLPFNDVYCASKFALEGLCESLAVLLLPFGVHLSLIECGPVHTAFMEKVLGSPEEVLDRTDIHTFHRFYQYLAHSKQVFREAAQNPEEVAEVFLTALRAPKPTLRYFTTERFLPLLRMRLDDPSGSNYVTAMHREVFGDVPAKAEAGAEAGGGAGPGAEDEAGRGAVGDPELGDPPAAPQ
# [2] = molecular target: T2, 17-beta-hydroxysteroid dehydrogenase type 1 (Homo sapiens) (UniProt P14061); test: Inhibition of human recombinant 17beta-HSD1 expressed in Sf9 insect cells at 100 nM
# T2 sequence (whole entry): T1 sequence (P14061 whole entry)
# [3] = molecular target: T3, 17-beta-hydroxysteroid dehydrogenase type 2 (Homo sapiens, UniProt P37059); test: Inhibition of human placental 17beta-HSD2
# T3 sequence (P37059 whole entry): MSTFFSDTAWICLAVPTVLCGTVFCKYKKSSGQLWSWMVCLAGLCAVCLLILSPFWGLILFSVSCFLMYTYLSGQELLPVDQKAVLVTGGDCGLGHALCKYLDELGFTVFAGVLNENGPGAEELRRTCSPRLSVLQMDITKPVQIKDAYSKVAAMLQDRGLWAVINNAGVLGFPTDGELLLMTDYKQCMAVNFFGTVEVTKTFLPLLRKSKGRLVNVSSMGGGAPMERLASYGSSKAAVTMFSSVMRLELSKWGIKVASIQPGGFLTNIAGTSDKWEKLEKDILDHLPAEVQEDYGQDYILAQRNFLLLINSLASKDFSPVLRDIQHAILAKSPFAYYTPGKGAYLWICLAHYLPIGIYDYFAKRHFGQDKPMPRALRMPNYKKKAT
# [4] = molecular target: T2, 17-beta-hydroxysteroid dehydrogenase type 1 (Homo sapiens); test: Inhibition of human recombinant 17beta-HSD1 expressed in Sf9 insect cells at 1 uM
# [5] = molecular target: Estrogen receptor beta (Homo sapiens) (UniProt Q92731); test: Displacement of [3H]estradiol from human recombinant ERbeta relative to estradiol
# Homo sapiens = organism: Homo sapiens; test: Selectivity ratio for human placental 17beta-HSD1 over human placental 17beta-HSD2
# [6] = molecular target: T4, Estrogen receptor (Homo sapiens) (UniProt P03372); test: Displacement of [3H]estradiol from human recombinant ERalpha relative to estradiol
# T4 sequence (whole entry): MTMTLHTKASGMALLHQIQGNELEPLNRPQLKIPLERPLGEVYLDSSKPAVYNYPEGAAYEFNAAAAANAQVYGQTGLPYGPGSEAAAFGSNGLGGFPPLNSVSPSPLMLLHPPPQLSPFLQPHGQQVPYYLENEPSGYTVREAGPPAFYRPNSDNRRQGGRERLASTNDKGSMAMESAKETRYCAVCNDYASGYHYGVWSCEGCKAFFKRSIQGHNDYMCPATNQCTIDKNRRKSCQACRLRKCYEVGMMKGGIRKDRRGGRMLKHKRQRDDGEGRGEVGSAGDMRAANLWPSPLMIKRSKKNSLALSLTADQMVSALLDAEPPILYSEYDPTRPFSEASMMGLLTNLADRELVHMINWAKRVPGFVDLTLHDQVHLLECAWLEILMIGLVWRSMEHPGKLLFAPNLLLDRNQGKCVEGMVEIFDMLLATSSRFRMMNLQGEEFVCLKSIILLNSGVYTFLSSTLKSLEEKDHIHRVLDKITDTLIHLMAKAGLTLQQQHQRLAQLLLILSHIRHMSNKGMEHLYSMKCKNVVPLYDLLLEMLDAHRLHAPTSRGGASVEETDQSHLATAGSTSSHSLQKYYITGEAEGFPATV
# [7] = Apparent permeability across human Caco-2 cell membrane; format: ADME, cell-based
# Chain of Estrogen receptor beta (Homo sapiens) (Q92731 whole entry): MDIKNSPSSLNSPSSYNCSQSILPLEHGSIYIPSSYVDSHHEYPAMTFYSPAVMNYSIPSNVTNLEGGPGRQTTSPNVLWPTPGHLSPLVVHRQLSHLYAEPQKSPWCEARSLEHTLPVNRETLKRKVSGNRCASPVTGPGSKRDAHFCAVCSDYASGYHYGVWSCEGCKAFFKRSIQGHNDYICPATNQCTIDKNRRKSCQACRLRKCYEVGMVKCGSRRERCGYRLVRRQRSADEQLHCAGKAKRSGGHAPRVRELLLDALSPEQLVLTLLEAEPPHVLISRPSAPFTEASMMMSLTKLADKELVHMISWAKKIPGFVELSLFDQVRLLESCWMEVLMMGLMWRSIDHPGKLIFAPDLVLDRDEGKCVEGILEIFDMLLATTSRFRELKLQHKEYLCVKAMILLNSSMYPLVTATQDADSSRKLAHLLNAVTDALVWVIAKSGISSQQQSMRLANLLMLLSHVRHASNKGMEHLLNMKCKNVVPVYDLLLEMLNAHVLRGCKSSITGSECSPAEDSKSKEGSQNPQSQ
inhibition [2] [%],inhibition [4] [%],SMILES,further results
30,58,Oc1cncc(-c2ccc3cc(O)ccc3c2)c1,IC50 [1]: 1230 nM; IC50 [3]: > 10000 nM; RBA [5]: 1%; Ratio IC50 (Homo sapiens): > 8; RBA [6]: 0.01%
,,Oc1cccc(-c2ccc3cc(O)ccc3c2)c1,IC50 [1]: 116 nM; RBA [5]: 0.8%; Papp [7]: 8.9 ×10⁻⁶ cm/s; RBA [6]: 0.2%
24,57,Oc1cccc(-c2cnc3cc(O)ccc3c2)c1,
< 10,32,Oc1ccc2cc(-c3cccnc3)ccc2c1,
14,63,Oc1cccc(-c2ccc3cc(O)ccc3n2)c1,
26,61,Oc1cccc(-c2ccc3ccccc3c2)c1,IC50 [1]: 2260 nM; IC50 [3]: 4010 nM; RBA [5]: 0.01%; Ratio IC50 (Homo sapiens): 1.8; RBA [6]: 0.01%
< 10,< 10,Oc1ccc2cc(-c3cccs3)ccc2c1,
< 10,23,Oc1cccc(-c2ccc3c(O)cccc3c2)c1,
< 10,< 10,O=C(O)c1ccc(-c2ccc3cc(O)ccc3c2)cc1,
< 10,< 10,Nc1cccc(-c2ccc3cc(O)ccc3c2)c1,
< 10,< 10,OCc1cccc(-c2ccc3cc(O)ccc3c2)c1,
< 10,< 10,Oc1ccc2cc(-c3ccccc3O)ccc2c1,
< 10,< 10,Oc1ccc2cc(-c3ccccc3)ccc2c1,
36,76,O=C(O)c1cccc(-c2ccc3cc(O)ccc3c2)c1,
16,62,Oc1cccc(-c2ccc3ccc(O)cc3c2)c1,
< 10,19,CC(=O)Nc1cccc(-c2ccc3cc(O)ccc3c2)c1,
< 10,13,OCc1ccc(-c2ccc3cc(O)ccc3c2)cc1,
< 10,< 10,Oc1ccc2cc(-c3ccsc3)ccc2c1,
,,Oc1ccc(-c2ccc3c(O)cccc3c2)cc1,IC50 [1]: 2420 nM; IC50 [3]: 302 nM; RBA [5]: 5%; Ratio IC50 (Homo sapiens): 0.1; RBA [6]: 5%
,,C[C@]12CC[C@@H]3c4ccc(O)cc4CC[C@H]3[C@@H]1CC(CCCCCCCCC(=O)OC[C@H]1O[C@@H](n3cnc4c(N)ncnc43)[C@H](O)[C@@H]1O)[C@@H]2O (stereo partly drawn),IC50 [1]: 52 nM
< 10,< 10,Oc1ccc(-c2cnc3ccccc3c2)cc1,
< 10,< 10,Oc1ccc(-c2cnc3cc(O)ccc3c2)cc1,
< 10,< 10,O=[N+]([O-])c1cccc(-c2ccc3cc(O)ccc3c2)c1,
< 10,23,O=C1CCCc2cc(-c3cccc(O)c3)ccc21,
< 10,< 10,Oc1ccc(-c2ccc3cc(O)ccc3c2)cc1,
< 10,18,Oc1cccc(-c2cnc3ccccc3c2)c1,
< 10,< 10,Oc1cccc(-c2cc3cc(O)ccc3[nH]2)c1,
